The values that follow come from US20060166901A1, “Compositions comprising O-acetylsalicyl derivatives of aminocarbohydrates and amino acids” (priority 2005, published 2006).

For series [1] the following is noted: patients, recent studies; cited from earlier work.
For series [2], the system named is osteoarthritis of both knees. In words: Oral administration to a subject with osteoarthritis of both knees, relief of knee pain and adverse reactions. The class given is in vivo, human. The note with it: earlier treatment. On the procedure:
The subject took an oral dose of 100 mg N—(O-acetylsalicyl)-L-tyrosine ethyl ester.
Subject, weight 90 kg, had 4 year history of osteoarthritis of both knees which was confirmed by X-ray and MRI showing diminished articular space. Symptoms of pain upon walking and at rest, as well as tenderness to palpation, had been consistently present, varying in intensity from moderate to severe.
[…] […] The subject did intensive physical activities during the next 10 hours that consisted of farming manual labor that included climbing up and down the banks of a pond to cut off cattail weeds at root level, and manually carrying stalks up the pond bank to level ground. Other physical exertions included numerous mounting and demounting from a farm tractor that pulled a trailer containing cattail weeds to dumping sites.

Setting [3] is: nonsteroidal anti-inflammatory agents.

For `Cc1ccc(-c2cc(C(F)(F)F)nn2-c2ccc(S(N)(=O)=O)cc2)cc1` [celecoxib], the “rates of heart attack (cardiac arrest) versus the control group” value in series [1] was “higher rates of heart attack”. With `CC(C)Cc1ccc(C(C)C(=O)O)cc1` (centres unmarked) [ibuprofen], the “relief of osteoarthritis symptoms (subject's history)” value in series [2] (setting [3]) was “had not been relieved”. Still for that read-out and setting: the entry for `COc1ccc2cc([C@H](C)C(=O)O)ccc2c1` [naproxen] is “had not been relieved”. Take `C[C@]12C=CC(=O)C=C1CC[C@@H]1[C@@H]2C(=O)C[C@@]2(C)[C@H]1CC[C@]2(O)C(=O)CO` [prednisone]: the “relief of osteoarthritis symptoms (subject's history)” value in series [2] (oral, 10-30 mg daily) is “relieved incompletely”. `CS(=O)(=O)c1ccc(C2=C(c3ccccc3)C(=O)OC2)cc1` [rofecoxib, Rofecoxib]: in series [1], the “rates of heart attack (cardiac arrest) versus the control group” value is recorded as “higher rates of heart attack”.
